Experimental data: patent publication US6410735B1, “1-(4-arylpiperazin-1-y1)-ω-[N-(α,ω-dicarboximido)]-alkanes useful as uro-selective α1-adrenoceptor blockers” (Ranbaxy Laboratories Limited, priority 1997, dated 2002)

Key:
5-HT2A = target: T1, 5-HT2A (Rattus norvegicus, UniProt P14842); test: Receptor selectivity, rat aorta; assay type: cell-based; conditions: read-out: pKB 5-HT2A (converted)
T1 construct: from tissue; host or cells: rat aorta
Description: (§1) Selectivity of action of the present compounds was tested against a range of different receptors, e.g., β1- and α2-adrenergic, muscarinic cholinergic, serotoninergic (5-HT2A), histaminergic (H1), angiotensin II, endothelin (ETA and B,), as well as calcium and potassium channels. Rat aorta was used to study the effect of the compounds on 5-HT2A, ETA, calcium and potassium channels. Angiotensin II receptor antagonistic activity was studied in rabbit aorta. Muscarinic cholinergic receptor and ETB receptor antagonistic activity was studied in rat trachea, while guinea pig trachea was used to study H1 receptor antagonistic activity. Electrically stimulated rat vas deferens was used to investigate the effect of α2-adrenoceptors, while β1-adrenoceptor antagonistic activity was studied using electrically stimulated rat ventricular strips. Results of this selectivity study is shown in (Table 2).

[1] = test system: anaesthetized dogs (intraurethral pressure); test: In vivo selectivity study, phenylephrine response on intraurethral (prostatic) pressure in anaesthetized dogs; parameters: species or system dog; conditions: Canis lupus familiaris, iv 0.01-0.3 mg/kg, against phenylephrine, read-out: pseudo pKB Intraurethral Pressure (converted)
Description: Male mongrel dogs (12-20 Kg) were anaesthetized with pentobarbitone sodium (35 mg/kg, iv). Trachea was intubated for artificial respiration. Femoral artery and femoral vein were cannulated for recording blood pressure and for administration of drug solutions, respectively. Blood pressure was recorded on a polygraph through a pressure transducer. A paramedian incision was made lateral to the penis and the bladder was exposed. Urine was drained through a cannula put directly into the bladder and it was guided into the urethra gently and was placed at the prostatic urethra. Balloon was inflated with 2 cc air and its placement was confirmed by digital pressure. Intraurethral pressure was recorded on the polygraph through a pressure transducer. Graded dose response relationship of phenylephrine (1-16 μg/kg, iv) was obtained on prostatic pressure and blood pressure, prior to administration of the compounds of the present invention. Compounds 2, 9, and 13 (at dosages of 0.01, 0.03, 0.1, and 0.3 mg/kg) were administered intravenously 10 min before obtaining phenylephrine dose response curves. Results were analyzed and pseudo PKB values were calculated as described in Kenny et al (1996).

H1 receptor = target: T2, H1 receptor (Cavia porcellus, UniProt P31389); test: Receptor selectivity, guinea pig trachea; assay type: cell-based; conditions: read-out: pKB H1-Histaminergic (converted)
T2 construct: guinea pig trachea was used to study H1 receptor antagonistic activity; from tissue; host or cells: guinea pig trachea
T2 sequence (P31389 whole entry): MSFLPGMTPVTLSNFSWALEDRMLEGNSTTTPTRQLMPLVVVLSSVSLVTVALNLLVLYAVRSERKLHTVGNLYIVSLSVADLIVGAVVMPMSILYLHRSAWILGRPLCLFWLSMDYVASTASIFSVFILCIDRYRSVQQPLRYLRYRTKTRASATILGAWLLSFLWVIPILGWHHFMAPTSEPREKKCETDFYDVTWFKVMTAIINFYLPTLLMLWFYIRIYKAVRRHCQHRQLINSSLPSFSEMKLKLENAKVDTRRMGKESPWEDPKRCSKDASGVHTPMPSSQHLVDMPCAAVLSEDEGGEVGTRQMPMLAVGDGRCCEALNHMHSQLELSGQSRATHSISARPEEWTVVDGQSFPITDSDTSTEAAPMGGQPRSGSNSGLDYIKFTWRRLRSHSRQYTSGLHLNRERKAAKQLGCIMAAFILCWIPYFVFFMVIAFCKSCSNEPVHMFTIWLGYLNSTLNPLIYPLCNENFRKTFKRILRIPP
Description: as §1

α1A-adrenoceptor = target: T3, α1A-adrenoceptor (Rattus norvegicus, UniProt P43140); test: Receptor binding assay, [3H]prazosin, rat submaxillary membranes; conditions: rat submaxillary membranes, 0.5 nM [3H]prazosin; read-out: RBA (Ki nM) α1A
T3 construct: from tissue; host or cells: rat submaxillary gland membranes
T3 sequence (P43140 1-466): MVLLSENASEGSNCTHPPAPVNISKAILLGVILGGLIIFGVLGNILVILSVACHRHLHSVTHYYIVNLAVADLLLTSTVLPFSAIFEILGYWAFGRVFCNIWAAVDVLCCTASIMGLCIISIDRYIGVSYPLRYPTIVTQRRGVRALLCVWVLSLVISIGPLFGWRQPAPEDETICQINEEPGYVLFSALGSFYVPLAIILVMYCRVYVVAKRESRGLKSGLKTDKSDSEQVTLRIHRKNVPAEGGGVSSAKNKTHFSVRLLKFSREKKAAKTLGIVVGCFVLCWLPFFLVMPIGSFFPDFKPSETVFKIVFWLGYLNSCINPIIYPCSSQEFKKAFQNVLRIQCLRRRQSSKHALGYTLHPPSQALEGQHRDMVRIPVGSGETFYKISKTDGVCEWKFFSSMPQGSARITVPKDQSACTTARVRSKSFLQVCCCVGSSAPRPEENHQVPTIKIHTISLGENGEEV
Description: (§2) Receptor binding assays, (RBA's) were performed for native α1-adrenoceptors. Rat submaxillary and rat liver membrane preparations were used to assess the affinity for α1A and α1B subtypes, respectively. Aliquots of membrane protein ([…]) were incubated in a final volume of […] assay buffer (50 mM Tris, 0.5 mM EDTA at pH 7.4) with 0.5 nM [^3H] prazosin for 60 mins at 28 ° C. Reaction was stopped by rapid filtration on Millipore filters. Filters were dried and bound radioactivity counted. Non-specific binding was determined in the presence of 0.3 mM prazosin.

α1B-adrenoceptor = target: T4, α1B-adrenoceptor (Rattus norvegicus, UniProt P15823); test: Receptor binding assay, [3H]prazosin, rat liver membranes; conditions: rat liver membranes, 0.5 nM [3H]prazosin; read-out: RBA (Ki nM) α1B
T4 construct: from tissue; host or cells: rat liver membranes
T4 sequence (P15823 1-515): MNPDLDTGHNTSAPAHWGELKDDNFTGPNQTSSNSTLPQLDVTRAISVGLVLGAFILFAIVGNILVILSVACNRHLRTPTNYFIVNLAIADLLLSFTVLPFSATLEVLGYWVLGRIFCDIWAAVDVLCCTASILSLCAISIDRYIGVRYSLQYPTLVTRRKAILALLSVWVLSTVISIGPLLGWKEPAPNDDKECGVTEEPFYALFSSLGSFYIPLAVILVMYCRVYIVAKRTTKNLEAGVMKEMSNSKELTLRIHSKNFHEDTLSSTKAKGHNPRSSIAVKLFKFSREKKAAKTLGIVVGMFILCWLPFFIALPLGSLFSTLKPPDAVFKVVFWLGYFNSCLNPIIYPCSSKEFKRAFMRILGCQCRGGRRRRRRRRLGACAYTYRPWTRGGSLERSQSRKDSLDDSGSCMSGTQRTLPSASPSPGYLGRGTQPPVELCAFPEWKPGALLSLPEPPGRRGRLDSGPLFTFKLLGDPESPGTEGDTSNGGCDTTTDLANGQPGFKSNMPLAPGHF
Description: as §2

Angiotensin II receptor = target: T5, Angiotensin II receptor (Oryctolagus cuniculus, UniProt P34976); test: Receptor selectivity, rabbit aorta; assay type: cell-based; conditions: read-out: pKB Angiotensin II (converted)
T5 construct: from tissue; host or cells: rabbit aorta
T5 sequence (P34976 1-359): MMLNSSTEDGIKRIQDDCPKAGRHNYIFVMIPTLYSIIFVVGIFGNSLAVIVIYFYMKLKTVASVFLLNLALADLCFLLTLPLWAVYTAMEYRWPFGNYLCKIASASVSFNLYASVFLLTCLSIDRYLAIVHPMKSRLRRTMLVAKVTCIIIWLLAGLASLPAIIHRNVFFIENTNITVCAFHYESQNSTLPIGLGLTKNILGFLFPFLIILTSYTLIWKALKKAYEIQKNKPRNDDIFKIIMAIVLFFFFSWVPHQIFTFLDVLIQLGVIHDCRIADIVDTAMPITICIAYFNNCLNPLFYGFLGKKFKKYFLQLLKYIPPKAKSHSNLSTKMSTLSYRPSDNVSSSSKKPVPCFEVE
Description: as §1

T1 sequence (P14842 whole entry): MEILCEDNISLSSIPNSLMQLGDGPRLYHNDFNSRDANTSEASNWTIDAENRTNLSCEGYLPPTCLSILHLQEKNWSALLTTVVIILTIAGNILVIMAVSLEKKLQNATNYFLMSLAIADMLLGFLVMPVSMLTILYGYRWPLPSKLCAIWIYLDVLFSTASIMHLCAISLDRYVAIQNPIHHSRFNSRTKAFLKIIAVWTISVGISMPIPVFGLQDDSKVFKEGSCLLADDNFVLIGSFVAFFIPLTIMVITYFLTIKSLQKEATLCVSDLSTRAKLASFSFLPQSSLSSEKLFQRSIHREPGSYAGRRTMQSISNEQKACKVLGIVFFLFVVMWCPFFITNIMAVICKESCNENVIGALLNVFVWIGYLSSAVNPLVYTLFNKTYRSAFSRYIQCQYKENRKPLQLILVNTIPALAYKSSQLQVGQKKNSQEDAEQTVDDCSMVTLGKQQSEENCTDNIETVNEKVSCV

Compound: COc1ccccc1N1CCN(CCCN2C(=O)CCC2=O)CC1 [Compound 2, 1-[4-(2-Methoxyphenyl)piperazin-1-yl]3-(2,5-dioxopyrrolidin-1-yl)propane]
- Kb (5-HT2A): 0.0251 µM
- Kb [1]: 0.0251 µM
- Kb (H1 receptor): 5.01 µM
- Ki (α1A-adrenoceptor): 19 nM
- Ki (α1B-adrenoceptor): 244 nM

Compound: COc1ccccc1N1CCN(CCCCN2C(=O)CCC2=O)CC1 [Compound 9, 1-[4-(2-Methoxyphenyl)piperazin-1-yl]-4-(2,5-dioxopyrrolidin-1-yl)butane]
- Kb (Angiotensin II receptor): 2.51 µM
- Kb (5-HT2A): 0.0126 µM
- Kb [1]: 0.0126 µM
- Kb (H1 receptor): 3.98 µM
- Ki (α1A-adrenoceptor): 1 nM
- Ki (α1B-adrenoceptor): 35 nM

Compound: COc1ccccc1N1CCN(CCCN2C(=O)CCCC2=O)CC1 [Compound 13, 1-[4-(2-Methoxyphenyl)piperazin-1-yl]-3-(2,6-dioxopiperidin-1-yl)propane]
- Kb (Angiotensin II receptor): 5.01 µM
- Kb (5-HT2A): 0.01 µM
- Kb [1]: 0.00794 µM
- Kb (H1 receptor): 2 µM
- Ki (α1A-adrenoceptor): 3 nM
- Ki (α1B-adrenoceptor): 168 nM
